The test system of the data set is CCRIS mutagenicity, Ames/micronucleus/aberration tests. The data set can be described thus: CCRIS mutagenicity studies.
Where [1] appears, read: Test System: AMES SALMONELLA TYPHIMURIUM, Strain/Indicator: TA97, Metabolic Activation: NONE, Method: STANDARD PLATE.
Setting [2] is: Test System: AMES SALMONELLA TYPHIMURIUM, Strain/Indicator: TA97, Metabolic Activation: RAT, LIVER, S-9, PHENOBARBITAL, Method: STANDARD PLATE.
Where [3] appears, read: Test System: AMES SALMONELLA TYPHIMURIUM, Strain/Indicator: TA98, Metabolic Activation: NONE, Method: PREINCUBATION
Setting [4] is: Test System: AMES SALMONELLA TYPHIMURIUM, Strain/Indicator: TA98, Metabolic Activation: NONE, Method: STANDARD PLATE.
[5] abbreviates: Test System: AMES SALMONELLA TYPHIMURIUM, Strain/Indicator: TA98, Metabolic Activation: RAT, LIVER, S-9, PHENOBARBITAL, Method: STANDARD PLATE.
[6] abbreviates: Test System: AMES SALMONELLA TYPHIMURIUM, Strain/Indicator: TA100, Metabolic Activation: NONE, Method: PREINCUBATION
Setting [7] is: Test System: AMES SALMONELLA TYPHIMURIUM, Strain/Indicator: TA100, Metabolic Activation: RAT, LIVER, S-9, PHENOBARBITAL, Method: STANDARD PLATE.

Activity calls are given as the source filed them. The rule behind the calls is not given here.

`O=C/C(=C(/Cl)C(=O)O)C(Cl)Cl`: the mutagenic call by setting is: under setting [1], “inactive; negative”; under setting [2], “inactive; negative”; under setting [3], “active; positive”; under setting [4], “active; positive”; under setting [5], “inactive; negative”; under setting [6], “active; positive”. Moreover, the mutagenic call runs as follows: (Test System: AMES SALMONELLA TYPHIMURIUM, Strain/Indicator: TA100, Metabolic Activation: NONE, Method: STANDARD PLATE) “active; positive”; under setting [7], “inactive; negative”; (Test System: AMES SALMONELLA TYPHIMURIUM, Strain/Indicator: TA104, Metabolic Activation: NONE, Method: PREINCUBATION) “active; positive”.
In the case of `N#CC1CO1` (stereo not given), the mutagenic call runs as follows: (Test System: UDS HUMAN MAMMARY EPITHELIAL CELLS, Strain/Indicator: THY INCORP, Metabolic Activation: NONE, Method: AUTORADIOGRAPHY) “active; positive”; (Test System: UDS PRIMARY RAT HEPATOCYTES, Strain/Indicator: THY INCORP, Metabolic Activation: NONE, Method: AUTORADIOGRAPHY) “inactive; negative”.
Regarding `O=C(O)/C(Cl)=C(\C(=O)O)C(Cl)Cl`, the mutagenic call under setting [1] was “inactive; negative”; the mutagenic call under setting [2] was “inactive; negative”; the mutagenic call under setting [4] is “inactive; negative”; the mutagenic call (Test System: AMES SALMONELLA TYPHIMURIUM, Strain/Indicator: TA98, Metabolic Activation: RAT, LIVER, S-9, AROCLOR 1254, Method: STANDARD PLATE) was “inactive; negative”; the mutagenic call under setting [5] was “inactive; negative”; the mutagenic call (Test System: AMES SALMONELLA TYPHIMURIUM, Strain/Indicator: TA100, Metabolic Activation: RAT, LIVER, S-9, AROCLOR 1254, Method: STANDARD PLATE) is “inactive; negative”. Further, the mutagenic call under setting [7] was “inactive; negative”; the mutagenic call (Test System: AMES SALMONELLA TYPHIMURIUM, Strain/Indicator: TA102, Metabolic Activation: NONE, Method: STANDARD PLATE) is “inactive; negative”; the mutagenic call (Test System: AMES SALMONELLA TYPHIMURIUM, Strain/Indicator: TA102, Metabolic Activation: RAT, LIVER, S-9, AROCLOR 1254, Method: STANDARD PLATE) is “inactive; negative”.
Consider `CC/C=C/C#N`, for which the mutagenic call by setting is: (Test System: AMES SALMONELLA TYPHIMURIUM, Strain/Indicator: TA97, Metabolic Activation: HAMSTER, LIVER, S-9, AROCLOR 1254 (10%), Method: PREINCUBATION) “inactive; negative”; (Test System: AMES SALMONELLA TYPHIMURIUM, Strain/Indicator: TA97, Metabolic Activation: HAMSTER, LIVER, S-9, AROCLOR 1254 (30%), Method: PREINCUBATION) “inactive; negative”; (Test System: AMES SALMONELLA TYPHIMURIUM, Strain/Indicator: TA97, Metabolic Activation: NONE, Method: PREINCUBATION) “inactive; negative”; (Test System: AMES SALMONELLA TYPHIMURIUM, Strain/Indicator: TA97, Metabolic Activation: RAT, LIVER, S-9, AROCLOR 1254 (10%), Method: PREINCUBATION) “inactive; negative”; (Test System: AMES SALMONELLA TYPHIMURIUM, Strain/Indicator: TA97, Metabolic Activation: RAT, LIVER, S-9, AROCLOR 1254 (30%), Method: PREINCUBATION) “inactive; negative”; (Test System: AMES SALMONELLA TYPHIMURIUM, Strain/Indicator: TA98, Metabolic Activation: HAMSTER, LIVER, S-9, AROCLOR 1254 (10%), Method: PREINCUBATION) “inactive; negative”. The mutagenic call by setting is: (Test System: AMES SALMONELLA TYPHIMURIUM, Strain/Indicator: TA98, Metabolic Activation: HAMSTER, LIVER, S-9, AROCLOR 1254 (30%), Method: PREINCUBATION) “inactive; negative”; under setting [3], “inactive; negative”; (Test System: AMES SALMONELLA TYPHIMURIUM, Strain/Indicator: TA98, Metabolic Activation: RAT, LIVER, S-9, AROCLOR 1254 (10%), Method: PREINCUBATION) “inactive; negative”; (Test System: AMES SALMONELLA TYPHIMURIUM, Strain/Indicator: TA98, Metabolic Activation: RAT, LIVER, S-9, AROCLOR 1254 (30%), Method: PREINCUBATION) “inactive; negative”; (Test System: AMES SALMONELLA TYPHIMURIUM, Strain/Indicator: TA100, Metabolic Activation: HAMSTER, LIVER, S-9, AROCLOR 1254 (10%), Method: PREINCUBATION) “inactive; negative”; (Test System: AMES SALMONELLA TYPHIMURIUM, Strain/Indicator: TA100, Metabolic Activation: HAMSTER, LIVER, S-9, AROCLOR 1254 (30%), Method: PREINCUBATION) “inactive; negative”. Also, the mutagenic call reads like this: under setting [6], “inactive; negative”; (Test System: AMES SALMONELLA TYPHIMURIUM, Strain/Indicator: TA100, Metabolic Activation: RAT, LIVER, S-9, AROCLOR 1254 (10%), Method: PREINCUBATION) “inactive; negative”; (Test System: AMES SALMONELLA TYPHIMURIUM, Strain/Indicator: TA100, Metabolic Activation: RAT, LIVER, S-9, AROCLOR 1254 (30%), Method: PREINCUBATION) “inactive; negative”; (Test System: AMES SALMONELLA TYPHIMURIUM, Strain/Indicator: TA1535, Metabolic Activation: HAMSTER, LIVER, S-9, AROCLOR 1254 (10 OR 30%), Method: PREINCUBATION) “inactive; negative”; (Test System: AMES SALMONELLA TYPHIMURIUM, Strain/Indicator: TA1535, Metabolic Activation: NONE, Method: PREINCUBATION) “inactive; negative”; (Test System: AMES SALMONELLA TYPHIMURIUM, Strain/Indicator: TA1535, Metabolic Activation: RAT, LIVER, S-9, AROCLOR 1254 (10%), Method: PREINCUBATION) “inactive; negative”. In addition, the mutagenic call (Test System: AMES SALMONELLA TYPHIMURIUM, Strain/Indicator: TA1535, Metabolic Activation: RAT, LIVER, S-9, AROCLOR 1254 (30%), Method: PREINCUBATION) is “inactive; negative” and the mutagenic call (Test System: AMES SALMONELLA TYPHIMURIUM, Strain/Indicator: TA1537, Metabolic Activation: HAMSTER, LIVER, S-9, AROCLOR 1254 (10 OR 30%), Method: PREINCUBATION) is “inactive; negative”.

For the origin of these results see PubChem BioAssay AID1259407 (Chemical Carcinogenesis Research Information System (CCRIS), 2018).
